In patent publication US20080050452A1, “METAL-CONTAINING FORMULATIONS AND METHODS OF USE” (priority 2006, published 2008):
In brackets after ≈: the same amount, converted by molar mass.

Legend:
[1] = Compatibility of nanocrystalline silver with excipients; type: physicochemical; conditions: 10% aqueous solution of excipient mixed with nanocrystalline silver in glass vial, 40° C. overnight
Enterobacter cloacae = assay: MIC assay; type: cell-based; conditions: Ent. cloacae
Escherichia coli = assay: MIC assay; type: cell-based
[2] = Body weight in rat DNBS-induced colitis; type: in vivo, Sprague-Dawley rats; conditions: rats with DNBS-induced colitis, intracolonic or oral treatment
DNBS-induced colitis [3] = assay: Total IBD score in rat DNBS-induced colitis; type: in vivo, Sprague-Dawley rats
Description: Animals: Male Sprague-Dawley rats, weighing approximately 250-300 gm were purchased from Charles River Laboratories (Raleigh, N.C.). The animals were housed under standard conditions with free access to food and water. They were acclimatized for 2-3 days before commencing the experiments. The study protocol was approved by the Institutional Animal Care and Use Committees (IACUC).
Induction of ulcerative colitis: Colitis was produced according to published methods. Animals were anesthetized by intraperitoneal injection of 75 mg/kg of ketamine plus 5 mg/kg of xylazine. A single intracolonic injection of 120 mg/ml of dinitrobenzenesulfonic acid (DNBS) (Sigma Chemicals, St. Louis, Mo.) in 250 micro liter of 50% ethanol was administered through a Tom Cat catheter (Kendall Sovereign, Mansfield, Mass.) with a closed-end tip, connected to a 1 ml syringe and placed 7 cm proximal to the anus. Lubricant was applied to the tip of the catheter before injection, to protect from mucosal injury. After instillation of DNBS, 0.5 ml of air was insufflated and the catheter was removed.
Sulfasalazine (Sigma Chemicals, St Louis, Mo.), at a concentration of 120 mg/ml for intracolonic treatment and 30 mg/ml for oral treatment was used as the reference drug in all the experiments. Sulfasalazine was first dissolved in 0.1M NaOH at a concentration about 30-fold higher than the required final concentration, and then suspended in 1.5% PVA for oral dosing and 5.7% PVA for intracolonic dosing.
One group was not treated and served as no treatment group. Treatment began one day after administration of DNBS.
Macroscopic Observations: Body weight was recorded daily and the animals were examined for their physical appearance. After five days of treatment, animals were sacrificed. The colon was excised between the ileocecal junction and rectum, and opened longitudinally. After scoring of the consistency of the stool the colon was rinsed in normal saline, examined and thickness of the colonic wall and number and size of ulcers were scored. Stool consistency was graded on a scale of 0-3: 0=normal stool, well formed pellets rigid as normal; 1=loose stool, formed pellet with moisture, soft stool keeping in stool shape; 2=loose stool, stools that have abnormal form with much moisture, softer shapeless stool; 3=watery or bloody diarrhea.
Thickness of colonic wall was graded on a scale of 0-4: 0=normal, no thickness; 1=mild thickness in lower portion of the colon; 2=moderate thickness in localized area; 3=moderate thickness extending to the central portion of the colon; 4=severe thickness in the whole colon. Colonic ulceration was graded on a scale of 0-10: 0=no ulcers; 1=one small ulcer less than 2-3 mm; 2=one large ulcer more than 2-3 mm; 3=two large ulcerations more than 2-3 mm in diameter; 4=two or more sites of ulcerations extending 1 cm along the length; 5-10=when an area of ulceration extended more than 1 cm along the length of the colon, the score increases by 1 for each additional cm of involvement. The total IBD score, obtained by the sum of the scores of colonic ulcer, colon thickness and stool consistency for each animal, was calculated for each treatment group.
Statistical Analysis: The results are expressed as the mean ±SE. The statistical significance in the mean total IBD score, histopathological inflammation score, and the immunohistochemical staining of cytokines or MMP-9 was determined using Tukey-Kramer's multiple comparison tests following one-way analysis of variance (ANOVA). The data were calculated with the aid of Instat Graph Pad Software. Differences with a P value less than 0.05 were considered significant.
Methods: Colitis was induced in rats using DNBS as described in Example 25. Animals were treated intracolonically (250 μl of the test reagents) once a day for five days. […] Methods: Colitis was induced in rats using DNBS as described in Example 25. Animals were treated intracolonically (250 μl of the test reagents) once a day for five days.

DNBS-induced colitis [4] = assay: Histopathological inflammation score of colon, rat DNBS-induced colitis; type: in vivo, Sprague-Dawley rats; conditions: oral, 100 mg/kg, five days, vs placebo and untreated
Procedure: Histopathology: A piece of colonic tissue at 2-4 cm proximal to the anus was excised and fixed in 10% formalin and the sections were stained with hematoxylin and eosin. The remaining length of the colonic tissues was stored at −80° C. for subsequent biochemical assays. The histology slides were examined by a veterinary pathologist who was blinded to the treatment groups. The extent of microscopic mucosal damage of the colon was scored on scale of 0-5 as described with slight modification: 0=normal histological appearance; 1=histological damage limited to surface epithelium, mild infiltration of the submucosa; 2=focal ulceration and cell disruption limited to mucosa, abnormal appearance of colonic wall, mild infiltration of inflammatory cells; 3=focal, transmural inflammation and ulceration, with mild to moderate infiltration of inflammatory cells; 4=Extensive transmural ulceration and inflammation bordered by areas of normal mucosa, moderate infiltration of inflammatory cells; 5=extensive transmural ulceration and inflammation involving entire section from epithelium to serosa, severe infiltration of inflammatory cells.
Statistical Analysis: The results are expressed as the mean ±SE. […] The data were calculated with the aid of Instat Graph Pad Software. […]

IL-1β = assay: Immunohistochemical staining of colon, rat DNBS-induced colitis; type: in vivo; conditions: oral treatment five days
Procedure: (§1) Immunohistochemistry: A Universal Streptavidin/Biotin detection system (Thermo Shandon, Pittsburgh, Pa.) was used for immunohistochemical staining of formalin fixed, paraffin embedded biopsies of the colon. After dewaxing, and hydration, sections were treated with protein blocking agent to reduce non-specific binding of antibodies. The tissues were then incubated with rabbit anti-rat TNF-α, or mouse anti-rat IL-12 p70 antibodies (Biosource International, Inc, Camarillo, Calif.); rabbit anti-rat IL-1β (Serotec, Raleigh, N.C.) or rabbit anti-rat MMP-9 antibody (Chemicon International, Telecuma, Calif.) in 1% bovine serum albumin in phosphate buffered saline. Incubations with secondary antibodies, streptavidin/biotin, and chromogenic detection of peroxidase were performed according to the manufacturer's protocol. Sections were counterstained, dehydrated, mounted and examined. The intensity of the immuno-peroxidase staining was graded as described previously. Expression of cytokines was graded as: 0, no staining in the section; 1, less than 25% of the section; 2, 25-50% of the section; 3, 50-75% of the section; 4, >75% of the section with significant staining.

MMP-9 = assay: as above; type: in vivo; conditions: colonic tissues, oral treatment, vs placebo and no treatment
Procedure: as §1

TNF-α = assay: as above; type: in vivo; conditions: oral treatment five days
Procedure: as §1

Staphylococcus aureus = assay: MIC assay; type: cell-based; conditions: solutions in 0.1 M lactate buffer pH 4.0
[5] = test system: Staphylococcus epidermidis; assay: MIC assay; type: cell-based; conditions: S. epiderm (ATCC); solutions in 0.1 M lactate buffer pH 4.0
Streptococcus pyogenes = assay: MIC assay; type: cell-based; conditions: solutions in 0.1 M lactate buffer pH 4.0
Streptococcus pneumoniae = assay: MIC assay; type: cell-based; conditions: solutions in 0.1 M lactate buffer pH 4.0
Pseudomonas aeruginosa = assay: MIC assay; type: cell-based; conditions: solutions in 0.1 M lactate buffer pH 4.0

## OCc1ccccc1 [Benzyl alcohol]
[1]
  Reaction with nanocrystalline silver: Grey/slightly red

## CCCCCCCCCCCCCCCCCCO [Cetearyl alcohol]
[1]
  Reaction with nanocrystalline silver: Light brown/green/black

## CCCCCCCCCCCCCCCCO [Cetyl alcohol]
[1]
  Reaction with nanocrystalline silver: Grey color - no discoloration

## CCCCCCCCCCCCCCCCCC(=O)OCC(O)CO (stereo not drawn) [Glycerol monostearate]
[1]
  Reaction with nanocrystalline silver: Brown discoloration

## CCCCCCCCCCCCCC(=O)OC(C)C [Isopropyl myristate]
[1]
  Reaction with nanocrystalline silver: Grey color - no discoloration

## COC(=O)c1ccc(O)cc1 [Methylparaben]
[1]
  Reaction with nanocrystalline silver: Brown discoloration

## CC(O)CO (stereo not drawn) [Propylene glycol]
[1]
  Reaction with nanocrystalline silver: Discoloration

## CCCOC(=O)c1ccc(O)cc1 [Propylparaben]
[1]
  Reaction with nanocrystalline silver: Green discoloration

## OO [Sample H2O2, hydrogen peroxide]
[1]
  Reaction with nanocrystalline silver: Brown discoloration after drying
Enterobacter cloacae; absence of catalase and superoxide dismutase (−)
  MIC: 63 µg/mL (≈ 1850 µM)
Enterobacter cloacae; presence of catalase and superoxide dismutase (+)
  MIC: >500 µg/mL
Escherichia coli; E. coli, absence of catalase and superoxide dismutase (−)
  MIC: 31 µg/mL (≈ 911 µM)
Escherichia coli; E. coli, presence of catalase and superoxide dismutase (+)
  MIC: >500 µg/mL

## O=C([O-])c1ccccc1.[Na+] [Sodium benzoate]
[1]
  Reaction with nanocrystalline silver: White precipitate

## CCCCCCCCCCCCCCCCCC(=O)O [Stearic acid]
[1]
  Reaction with nanocrystalline silver: Grey color - no discoloration

## CCOCCOCCO [Transcutol, diethylene glycol monoethyl ether]
[1]
  Reaction with nanocrystalline silver: Grey color - no discoloration

## O=C(O)c1cc(/N=N/c2ccc(S(=O)(=O)Nc3ccccn3)cc2)ccc1O [sulfasalazine, salicylazosulfapyridine]
[2]
  body weight change: started gaining body weight after one day of treatment
DNBS-induced colitis [3]; Example 27, intracolonic, 100 mg/kg
  total IBD score vs placebo: significantly reduced
DNBS-induced colitis [3]; Example 28, intracolonic, 100 mg/kg
  total IBD score vs placebo: significantly reduced
DNBS-induced colitis [3]; intracolonic, 100 mg/kg, five days
  total IBD score: Significant reduction
DNBS-induced colitis [4]
  histopathological inflammation score: significantly reduced
IL-1β
  expression of IL-1β (immunohistochemical staining): significantly reduced
MMP-9
  expression of MMP-9 (immunohistochemical staining): significantly reduced
TNF-α
  expression of TNF-α (immunohistochemical staining): significantly reduced

## PEG 400
[1]
  Reaction with nanocrystalline silver: Grey color - no discoloration

## Polyoxyl 40 stearate
[1]
  Reaction with nanocrystalline silver: Grey color - no discoloration

## Sodium parabens
[1]
  Reaction with nanocrystalline silver: Precipitation

## silver oxide [Ag2O]
Staphylococcus aureus; S. aureus (ATCC)
  MIC: 3 µg/mL
Staphylococcus aureus; S. aureus (clin.)
  MIC: 6 µg/mL
[5]
  MIC: 2 µg/mL
Streptococcus pyogenes; S. pyog (clin. 303)
  MIC: 2 µg/mL
Streptococcus pyogenes; S. pyog (clin. 304)
  MIC: 3 µg/mL
Streptococcus pneumoniae; S. pneumo (clin 314)
  MIC: 3 µg/mL
Streptococcus pneumoniae; S. pneumo (clin 315)
  MIC: 2 µg/mL
Pseudomonas aeruginosa; P. aerug (ATCC)
  MIC: 0.8 µg/mL
Pseudomonas aeruginosa; P. aerug. (clin.)
  MIC: 2 µg/mL
Escherichia coli; E. coli (ATCC), solutions in 0.1 M lactate buffer pH 4.0
  MIC: 0.8 µg/mL
DNBS-induced colitis [3]; Example 27, intracolonic 250 μl once a day for five days, 0.25% homogenized
  total IBD score vs placebo: unable to show significant reduction
DNBS-induced colitis [3]; Example 27, intracolonic 250 μl once a day for five days, 0.5% homogenized
  total IBD score vs placebo: unable to show significant reduction
DNBS-induced colitis [3]; Example 27, intracolonic 250 μl once a day for five days, 0.5% sonicated nanodispersion
  total IBD score vs placebo: significantly reduced
DNBS-induced colitis [3]; Example 28, intracolonic 250 μl once a day for five days, 0.5% sonicated nanodispersion
  total IBD score vs placebo: significantly reduced
DNBS-induced colitis [3]; Example 28, intracolonic 250 μl once a day for five days, 1.5% sonicated nanodispersion
  total IBD score vs placebo: significantly reduced
